Results on 21 compounds are retold here after patent US10059701B2 (Merck Patent GmbH, priority 2015, dated 2018).

The target of test [1] is T1, IRAK1 (Homo sapiens, UniProt P51617).
T1 construct: His-TEV-IRAK1 (194-712); His (N); TEV cleavage site (N)
As to the kind of experiment: IRAK1 enzymatic assay (ADP-Glo luminescence). The conditions noted are these: purified human recombinant His-TEV-IRAK1 (194-712). The format is biochemical. Put shortly:
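Recombinant human His-TEV-IRAK1 (194-712), 0.3 μg/ml, preincubated 15 min at RT with compounds (10 μM to 0.5 nM) in 50 mM Hepes pH 7.0, 10 mM MgCl2, 2 mM DTT, 0.1% BSA. ATP-started reaction run 2 hours at RT; ADP formed from ATP hydrolysis/autophosphorylation read by ADP-Glo luminescence.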
In general terms: ADP-Glo turns the ADP formed in a reaction into a luminescent signal.

Test [2] has as its target T2, IRAK4 (Homo sapiens, UniProt Q9NWZ3).
T2 construct: His-TEV-IRAK4 (1-460); His (N); TEV cleavage site (N)
T2 sequence (Q9NWZ3 1-460): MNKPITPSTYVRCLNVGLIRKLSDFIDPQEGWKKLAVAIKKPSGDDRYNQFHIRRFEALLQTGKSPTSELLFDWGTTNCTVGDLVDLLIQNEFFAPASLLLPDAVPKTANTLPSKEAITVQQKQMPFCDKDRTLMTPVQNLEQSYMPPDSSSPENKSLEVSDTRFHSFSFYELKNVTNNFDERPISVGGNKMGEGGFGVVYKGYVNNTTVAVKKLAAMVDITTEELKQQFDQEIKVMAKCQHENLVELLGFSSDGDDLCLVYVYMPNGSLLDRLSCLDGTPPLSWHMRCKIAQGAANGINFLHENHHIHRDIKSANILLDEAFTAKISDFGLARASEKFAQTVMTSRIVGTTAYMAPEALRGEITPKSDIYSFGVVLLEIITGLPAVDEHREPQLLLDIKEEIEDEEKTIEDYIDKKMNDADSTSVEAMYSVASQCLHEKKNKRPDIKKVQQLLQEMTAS
The test can be described thus: IRAK4 enzymatic assay (ADP-Glo luminescence). Type of test: biochemical. As to conditions: purified human recombinant His-TEV-IRAK4 (1-460), ATP 2 μM. Put shortly:
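Recombinant His-TEV-IRAK4 (1-460) at 0.3 μg/ml preincubated 15 min at RT with compounds (10 μM to 0.5 nM) in Hepes pH 7.0 buffer with MgCl2/MnCl2. Reaction started with 2 μM ATP and 300 nM STK1-biotin peptide, run 2 h at RT. ADP formed read by ADP-Glo luminescence.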

T1 sequence (P51617 194-712): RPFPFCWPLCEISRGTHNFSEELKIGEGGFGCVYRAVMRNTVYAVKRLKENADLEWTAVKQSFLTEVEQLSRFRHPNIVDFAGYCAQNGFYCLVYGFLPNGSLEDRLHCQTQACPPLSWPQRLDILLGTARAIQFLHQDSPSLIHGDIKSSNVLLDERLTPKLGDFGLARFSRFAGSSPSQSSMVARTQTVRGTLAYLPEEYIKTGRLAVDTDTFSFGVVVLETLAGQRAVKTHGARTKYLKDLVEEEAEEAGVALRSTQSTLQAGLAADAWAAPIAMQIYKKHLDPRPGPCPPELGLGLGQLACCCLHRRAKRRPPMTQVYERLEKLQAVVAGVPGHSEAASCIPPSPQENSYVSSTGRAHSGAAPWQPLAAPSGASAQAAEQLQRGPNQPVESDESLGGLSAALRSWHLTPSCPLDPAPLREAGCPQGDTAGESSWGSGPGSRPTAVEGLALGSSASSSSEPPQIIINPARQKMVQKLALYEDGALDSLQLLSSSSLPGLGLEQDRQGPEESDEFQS

Turning to `CC1(C)COC(=O)N1c1ccc2c(c1)[nH]/c(=N\C(=O)c1cccc(C(F)F)c1)n2CCCO` [Example 196, (E)-3-(difluoromethyl)-N-(5-(4,4-dimethyl-2-oxooxazolidin-3-yl)-1-(3-hydroxypropyl)-1H-benzo[d]imidazol-2(3H)-ylidene)benzamide], the IC50 in test [1] is 100 to 1000 nM; in test [2], no more than 100 nM.
For `O=C(/N=c1\[nH]c2cc(N3C(=O)CN(C4CC4)CC34CC4)ccc2n1CCCO)c1cccc(C(F)(F)F)c1` [Example 197, (E)-N-(5-(7-cyclopropyl-5-oxo-4,7-diazaspiro[2.5]octan-4-yl)-1-(3-hydroxypropyl)-1H-benzo[d]imidazol-2(3H)-ylidene)-3-(trifluoromethyl)benzamide], in that order: no more than 100 nM and no more than 100 nM.
For `O=C(/N=c1\[nH]c2cc(N3C(=O)CN(C4CC4)CC34CC4)ccc2n1CCCO)c1cccc(C(F)F)c1` [Example 198, (E)-N-(5-(7-cyclopropyl-5-oxo-4,7-diazaspiro[2.5]octan-4-yl)-1-(3-hydroxypropyl)-1H-benzo[d]imidazol-2(3H)-ylidene)-3-(difluoromethyl)benzamide], in that order: no more than 100 nM and no more than 100 nM.
In the case of `CC1(C)CN(c2ccc3c(c2)[nH]/c(=N\C(=O)c2cccc(C(F)(F)F)c2)n3CCCO)C(=O)O1` [Example 199, (E)-N-(5-(5,5-dimethyl-2-oxooxazolidin-3-yl)-1-(3-hydroxypropyl)-1H-benzo[d]imidazol-2(3H)-ylidene)-3-(trifluoromethyl)benzamide], the IC50 in test [1] was 100 to 1000 nM; in test [2] it was no more than 100 nM.
For `CC1(C)CN(c2ccc3c(c2)[nH]/c(=N\C(=O)c2cccc(C(F)F)c2)n3CCCO)C(=O)O1` [Example 200, (E)-3-(difluoromethyl)-N-(5-(5,5-dimethyl-2-oxooxazolidin-3-yl)-1-(3-hydroxypropyl)-1H-benzo[d]imidazol-2(3H)-ylidene)benzamide], in that order: 100 to 1000 nM and no more than 100 nM.
With `O=C(/N=c1\[nH]c2cc(-n3ncccc3=O)ccc2n1CCCO)c1cccc(C(F)(F)F)c1` [Example 201, (E)-N-(1-(3-hydroxypropyl)-5-(6-oxopyridazin-1(6H)-yl)-1H-benzo[d]imidazol-2(3H)-ylidene)-3-(trifluoromethyl)benzamide], the IC50 in test [1] and in test [2] was no more than 100 nM in each case.
As to `[2H]C([2H])([2H])Oc1cc2c(cc1N1CCOCC1=O)[nH]/c(=N\C(=O)c1cccc(C(F)(F)F)c1)n2CCCO` [Example 202, (E)-N-(1-(3-hydroxypropyl)-6-(trideuteromethoxy)-5-(3-oxomorpholino)-1H-benzo[d]imidazol-2(3H)-ylidene)-3-(trifluoromethyl)benzamide], the IC50 in test [1] and in test [2] was no more than 100 nM each time.
Regarding `[2H]C([2H])([2H])Oc1cc2c(cc1N1CCOCC1=O)[nH]/c(=N\C(=O)c1cccc(C(F)F)c1)n2CCCO` [Example 203, (E)-3-(difluoromethyl)-N-(1-(3-hydroxypropyl)-6-(trideuteromethoxy)-5-(3-oxomorpholino)-1H-benzo[d]imidazol-2(3H)-ylidene)benzamide], the IC50 in test [1] and in test [2] was no more than 100 nM in each case.
Consider `[2H]C([2H])([2H])Oc1cc2c(cc1N1CCCOC1=O)[nH]/c(=N\C(=O)c1cccc(C(F)(F)F)c1)n2CCCO` [Example 204, (E)-N-(1-(3-hydroxypropyl)-6-(trideuteromethoxy)-5-(2-oxo-1,3-oxazinan-3-yl)-1H-benzo[d]imidazol-2(3H)-ylidene)-3-(trifluoromethyl)benzamide], for which the IC50 in test [1] and in test [2] was no more than 100 nM in each case.
In the case of `[2H]C([2H])([2H])Oc1cc2c(cc1N1CCCOC1=O)[nH]/c(=N\C(=O)c1cccc(C(F)F)c1)n2CCCO` [Example 205, (E)-3-(difluoromethyl)-N-(1-(3-hydroxypropyl)-6-(trideuteromethoxy)-5-(2-oxo-1,3-oxazinan-3-yl)-1H-benzo[d]imidazol-2(3H)-ylidene)benzamide], the IC50 in test [1] and in test [2] was no more than 100 nM each time.
With `COc1cc2c(cc1N1CCCOC1=O)[nH]/c(=N\C(=O)c1cccc(C(F)(F)F)c1)n2CCCO` [Example 206, (E)-N-(1-(3-hydroxypropyl)-6-methoxy-5-(2-oxo-1,3-oxazinan-3-yl)-1H-benzo[d]imidazol-2(3H)-ylidene)-3-(trifluoromethyl)benzamide], the IC50 in test [1] and in test [2] was no more than 100 nM in each case.
On to `COc1cc2c(cc1N1CCCOC1=O)[nH]/c(=N\C(=O)c1cccc(C(F)F)c1)n2CCCO` [Example 207, (E)-3-(difluoromethyl)-N-(1-(3-hydroxypropyl)-6-methoxy-5-(2-oxo-1,3-oxazinan-3-yl)-1H-benzo[d]imidazol-2(3H)-ylidene)benzamide], for which the IC50 in test [1] and in test [2] was no more than 100 nM throughout.
As to `O=C(/N=c1\[nH]c2cc(N3CCOCC3=O)c(C3CC3)cc2n1CCCO)c1cccc(C(F)(F)F)c1` [Example 208, (E)-N-(6-cyclopropyl-1-(3-hydroxypropyl)-5-(3-oxomorpholino)-1H-benzo[d]imidazol-2(3H)-ylidene)-3-(trifluoromethyl)benzamide], the IC50 in test [1] and in test [2] was no more than 100 nM each time.
In the case of `O=C(/N=c1\[nH]c2cc(N3CCOCC3=O)c(C3CC3)cc2n1CCCO)c1cccc(C(F)F)c1` [Example 209, (E)-N-(6-cyclopropyl-1-(3-hydroxypropyl)-5-(3-oxomorpholino)-1H-benzo[d]imidazol-2(3H)-ylidene)-3-(difluoromethyl)benzamide], the IC50 in test [1] and in test [2] was no more than 100 nM in each case.
Take `O=C(/N=c1\[nH]c2cc(N3CCOCC3=O)cc(F)c2n1CCCO)c1cccc(C(F)(F)F)c1` [Example 210, (E)-N-(7-fluoro-1-(3-hydroxypropyl)-5-(3-oxomorpholino)-1H-benzo[d]imidazol-2(3H)-ylidene)-3-(trifluoromethyl)benzamide]: the values for the IC50 in test [1] and in test [2] were 100 to 1000 nM and no more than 100 nM, respectively.
As for `O=C(/N=c1\[nH]c2cc(N3CCOCC3=O)c(OC(F)F)cc2n1CCCO)c1cccc(C(F)(F)F)c1` [Example 211, (E)-N-(6-(difluoromethoxy)-1-(3-hydroxypropyl)-5-(3-oxomorpholino)-1H-benzo[d]imidazol-2(3H)-ylidene)-3-(trifluoromethyl)benzamide], the IC50 in test [1] and in test [2] was no more than 100 nM each time.
For `O=C(/N=c1\[nH]c2cc(N3C(=O)CN4CCC3CC4)ccc2n1CCCO)c1cccc(C(F)F)c1` [Example 212, (E)-3-(difluoromethyl)-N-(1-(3-hydroxypropyl)-5-(3-oxo-1,4-diazabicyclo[3.2.2]nonan-4-yl)-1H-benzo[d]imidazol-2(3H)-ylidene)benzamide], the results for the IC50 in test [1] and in test [2] were 100 to 1000 nM and no more than 100 nM, respectively.
Take `O=C(/N=c1\[nH]c2cc(N3CC4CC(N4)C3=O)ccc2n1CCCO)c1cccc(C(F)F)c1` (stereo not drawn) [Example 213, (E)-3-(difluoromethyl)-N-(1-(3-hydroxypropyl)-5-(2-oxo-3,6-diazabicyclo[3.1.1]heptan-3-yl)-1H-benzo[d]imidazol-2(3H)-ylidene)benzamide]: the IC50 is 100 to 1000 nM in test [1] and no more than 100 nM in test [2].
For `O=C(/N=c1\[nH]c2cc(N3CC4CCC(C3=O)N4C3CC3)ccc2n1CCCO)c1cccc(C(F)F)c1` (stereo not drawn) [Example 214, (E)-N-(5-(8-cyclopropyl-2-oxo-3,8-diazabicyclo[3.2.1]octan-3-yl)-1-(3-hydroxypropyl)-1H-benzo[d]imidazol-2(3H)-ylidene)-3-(difluoromethyl)benzamide], in that order: 100 to 1000 nM and no more than 100 nM.
For `O=C(/N=c1\[nH]c2cc(N3CC4CCC(C3=O)N4C3CC3)ccc2n1CCCO)c1cccc(C(F)(F)F)c1` (stereo not drawn) [Example 215, (E)-N-(5-(8-cyclopropyl-2-oxo-3,8-diazabicyclo[3.2.1]octan-3-yl)-1-(3-hydroxypropyl)-1H-benzo[d]imidazol-2(3H)-ylidene)-3-(trifluoromethyl)benzamide], in that order: greater than 1000 nM and no more than 100 nM.
The corresponding values for `O=C(/N=c1\[nH]c2cc(N3CC4CC(N4)C3=O)ccc2n1CCCO)c1cccc(C(F)(F)F)c1` (stereo not drawn) [Example 216, (E)-N-(1-(3-hydroxypropyl)-5-(2-oxo-3,6-diazabicyclo[3.1.1]heptan-3-yl)-1H-benzo[d]imidazol-2(3H)-ylidene)-3-(trifluoromethyl)benzamide] are 100 to 1000 nM and no more than 100 nM.

The term IC50 denotes the concentration needed to halve the response being measured.
